Assay results as given in patent publication US20130197069A1, “METHODS FOR TREATING STRESS INDUCED EMOTIONAL DISORDERS” (MASSACHUSETTS INSTITUTE OF TECHNOLOGY, priority 2007, published 2013).
“Also recorded” adds a separate entry of the source. Where no end group is shown, it is not given here.

Key:
[1] = test system: Mice (Balb/c); experiment: Extinction of contextual freezing behavior after contextual fear conditioning; format: in vivo
Protocol: Animals: Mice (Balb/c, 12 weeks old) were housed under standard conditions with access to food and water ad libitum. All mice were purchased from Taconic (Germantown, N.Y.). Behavior testing was performed in a way that the mice were either housed in a separated compartment but within the testing room or different rooms were used for housing and testing. In the latter case the mice were brought to the testing room before the procedure. Although it appears that the dynamics of extinction behavior are somewhat variable depending on the employed behavior facility, the trends remain the same in different experiments. All experiments were approved by the corresponding Animal Use and Care Committee.
(§1) Extinction of contextual freezing behavior: Extinction and reminder shock procedures were performed as described before^6. In brief, mice were exposed to contextual fear conditioning (3 min context followed by at mild electric foot shock, 2 s, 0.7 mA). In some experiments a tone (30 s, 10 kHz, 75 dB SPL) was presented for 30 s before the shock. Extinction was performed on consecutive days. An extinction trial consisted of a 3 min re-exposure to the conditioning context.
Surgery/injection: Microcannula were purchased custom made from PlasticOne. The gauge of the guide and injection cannulae was 26 and 28, respectively. To insert cannulae into the dorsal hippocampus the coordinates AP −1.5 mm, lateral 1 mm, depth 2 mm were used as described before^18. To insert cannulae icy the coordinates AP +0.5 mm, lateral 1 mm, depth 2 mm were used. Butyrolactone I and roscovitine were dissolved and injected as described before^18. Rac-1 inhibitor was dissolved in aCSF and delivered bilaterally (0.5 μl/side) over a 1 min period. The correct localization of the cannulae was verified at the end of an experiment by methyleneblue injection. The cis-tronic Herpes Virus expressing GFP and dnPAK-1 or GFP alone was injected into the hippocampus bilaterally (0.5 μl/side) over a 2 min period. DnPAK-1 consisted of the DNA encoding amino acid 83-149 of PAK-1.
To test for a role of Cdk5 activity during extinction of learned fear, mice were implanted with microcannulae into the dorsal hippocampus (i.h.) and trained in the contextual fear conditioning paradigm. Fear conditioning consisted of a 3 min context exposure followed by a single electric foot shock ([…], constant current, 2 s). Subsequently, all mice were subjected to a daily extinction trial (E) on 6 consecutive days (E1-E6). Each extinction trial consisted of a 3 min re-exposure to the conditioned context without presenting the foot-shock again.

[2] = test system: p35/Cdk5; experiment: Immunoblot of p35/Cdk5 in hippocampal membrane and cytosolic fractions; format: in vivo, mice; conditions: icv 10 μg/μl after E1-E3, fractions 0.5 h after E3
Protocol: (§2) Immunoblot analysis: Immunoblot analysis was performed as described before^19. The antibody detecting pPAK-1Thr212 was used in a 1:250 dilution.
(§3) Anti-PAK-1 was from Santa Cruz (Santa Cruz, Calif.). All other antibodies were used in a 1:1000 dilution. pPAK-1Thr423 (Cell Signaling, Danvers, Mass.) synaptophysin (Sigma, St. Louis, Mo.), GAPDH and Rac-1 were from Upstate (Lake Placid, N.Y.), Cdk5 (J3) and p35 (C-19) were from Santa Cruz.
To this end, microcannuale were implanted into the lateral ventricles of mice that were subsequently trained by contextual fear conditioning and exposed to our extinction paradigm. Immediately after E1-E3 mice were injected with a Rac-1 inhibitor^35 (NSC23760; 10 μg/μl) or vehicle. Hippocampal membrane and cytosolic fractions were prepared 0.5 h after E3 and analyzed by immunoblot.

[3] = test system: PAK-1; experiment: Immunoblot of PAK-1, PAK-1T212 and PAK-1T423 in hippocampal membrane and cytosolic fractions; format: in vivo, mice
Protocol: as §2, §3
First, we measured PAK-1 phosphorylation at threonine 212 during extinction because this site is phosphorylated by p35/Cdk5^33. […] We also analyzed the activity of PAK-1 using a phospho-T423 antibody against PAK-1^37 in hippocampal lysates prepared from naïve mice and from mice 0.5 h after E1 or E3 by immunoblotting. We detected a significant increase in membrane associated PAK-1Thr423 levels after E3, when compared to E1 (FIG. 4b).
(§4) Next, we set out experiments to determine if the regulation of PAK-1 activity during extinction depended on the activities of Rac-1 and Cdk5/p35. To this end, lysates prepared from mice that were injected with a Rac-1 inhibitor or vehicle (as described under FIG. 3c) were analyzed by immunoblot. […] Consistently, PAK-1 levels increased in the cytosol of mice treated with Rac-1 inhibitor.
To investigate the impact of Cdk5/p35 activity on PAK-1 function during extinction, mice were implanted with microcannulae into the lateral ventricles and injected with 50 ng butyrolactone I immediately after E1. Because a single injection of butyrolactone I after E1 was sufficient to facilitate extinction (see FIG. 1d), hippocampal lysates were prepared 0.5 h after E1 and analyzed by immunoblotting using PAK-1 antibodies (FIG. 5a). […] In contrast, PAK-1T423 levels increased in lysates obtained from butyrolactone I injected mice (FIG. 5 b, c).

[4] = test system: p35 co-immunoprecipitated with PAK-1; experiment: Co-immunoprecipitation of PAK-1 and p35 from hippocampal lysates; format: in vivo, mice; conditions: Rac-1 inhibitor icv; 0.5 h after E3
Protocol: Membrane and cytosolic fractions were prepared form the hippocampus of mice 0.5 h after exposure to E1, E3 or from naïve animals and analyzed for the levels of the Cdk5 substrate PAK-1 by immunoblotting. […] In the cytosolic fraction pPAK-1T423 levels decreased after E1 when compared to naïve mice but increased back to baseline levels after E3. c. Hippocampal cytosolic and membrane fractions were prepared on E3 0.5 h after mice were injected (icv) with either vehicle or Rac-1 inhibitor. […] The same lysates as described under (c) were used to immunoprecipitate PAK-1. An HA antibody served a control for unspecific binding of proteins to the proteinA agarose beads. The precipitates were immunoblotted with antibodies against PAK-1 and p35. […] Error bars indicate S.E.M.
as §4

[5] = molecular target: T1, hippocampal Cdk5 (Mus musculus, UniProt P49615); experiment: Hippocampal Cdk5 activity measured by histone H1 phosphorylation; format: in vivo, mice
T1 construct: from tissue; host or cells: hippocampus of Balb/c mice
Protocol: (§5) In agreement with previous data the recovery of the fear response is rarely complete and may indicate that unlearning and new learning may coexist during extinction^29 30. […] In contrast, when butyrolactone I (50 ng) was administered 3 h after E1, freezing behavior was indistinguishable between butyrolactone I- and vehicle-injected mice (FIG. 1f). We estimated that the employed concentrations of butryrolactone I and roscovitine permit a specific inhibition of Cdk5. However high levels of those drugs may also affect Erk-1/2 kinases^31. […] Moreover, freezing behavior is not generally affected.

[6] = test system: MAP kinase signaling pathway; experiment: MAP kinase signaling pathway in hippocampus after injection; format: in vivo, mice; conditions: 50 ng into hippocampus
Protocol: as §5

[7] = test system: Mice (Balb/c); experiment: Extinction of amygdala-dependent cued fear; format: in vivo; conditions: intrahippocampal injection
Protocol: as §1, §5

[8] = test system: Rac1 interaction with Rac1-specific GEFs TrioN, GEF-H1 and Tiam1; conditions: Gao et al (2001) J. Biol. Chem. 276 47530; cited from earlier work
[9] = Rac-1 inhibitor icv, 0.5 h after E3, cytosolic fraction
[10] = Rac-1 inhibitor icv, 0.5 h after E3, membrane fraction
[11] = 50 ng immediately after E1, fractions 0.5 h later
[12] = 50 ng immediately after E1, fractions 0.5 h later, listed as Butyrolactone I

T1 sequence (P49615 whole entry): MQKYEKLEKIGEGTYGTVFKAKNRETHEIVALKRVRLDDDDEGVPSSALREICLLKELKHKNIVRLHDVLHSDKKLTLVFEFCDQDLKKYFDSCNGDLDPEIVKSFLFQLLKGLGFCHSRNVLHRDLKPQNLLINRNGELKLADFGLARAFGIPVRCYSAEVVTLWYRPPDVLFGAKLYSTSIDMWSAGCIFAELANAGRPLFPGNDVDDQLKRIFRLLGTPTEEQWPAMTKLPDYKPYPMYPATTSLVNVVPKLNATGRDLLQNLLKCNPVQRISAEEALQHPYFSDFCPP
T1 sequence (P61809 2-307 partner limits assumed): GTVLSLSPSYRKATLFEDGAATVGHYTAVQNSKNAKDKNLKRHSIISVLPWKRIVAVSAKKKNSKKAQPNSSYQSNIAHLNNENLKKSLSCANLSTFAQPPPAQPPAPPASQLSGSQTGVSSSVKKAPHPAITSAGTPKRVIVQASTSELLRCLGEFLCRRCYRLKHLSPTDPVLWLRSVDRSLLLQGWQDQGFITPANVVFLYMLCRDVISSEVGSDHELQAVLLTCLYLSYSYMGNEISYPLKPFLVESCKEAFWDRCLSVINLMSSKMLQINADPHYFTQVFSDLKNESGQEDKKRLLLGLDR

CCN(CC)CCCC(C)Nc1nc(C)cc(Nc2ccc3nc(C)cc(N)c3c2)n1 (stereo not drawn) [NSC23760]
freezing behavior vs. vehicle group ([1]; icv 10 μg/μl immediately after E1-E3): significant reduction of freezing behavior; also recorded: reduced freezing
membrane associated p35 and Cdk5 levels / distribution vs. vehicle [2]: dramatic redistribution of membrane associated p35 and Cdk5 to the cytosol
membrane associated p35 and Cdk5 levels / distribution vs. vehicle ([2]; listed as Rac-1 inhibitor): significant reduction of membrane-associated Cdk5/p35
PAK-1 levels in the cytosol vs. vehicle [3, 9]: increased
cytosolic PAK-1T212 levels vs. vehicle [3, 9]: decreased
membrane associated PAK-1T212 levels vs. vehicle [3, 10]: dramatic reduction; also recorded: significant reduction
membrane associated PAK-1 levels vs. vehicle [3, 10]: dramatic reduction; also recorded: significant reduction
amount of p35 co-immunoprecipitated with PAK-1 vs. vehicle [4]: reduced amount of p35 co-immunoprecipitated with PAK-1; also recorded: Much less p35 co-immunoprecipitated with PAK-1

COC(=O)[C@@]1(Cc2ccc(O)c(CC=C(C)C)c2)OC(=O)C(O)=C1c1ccc(O)cc1 [butyrolactone I]
freezing behavior / extinction vs. vehicle group ([1]; 12.5 ng i.h. after E1-E3, listed as butyrolactone 1): no significant effect on the reduction of freezing behavior
freezing behavior / extinction vs. vehicle group ([1]; 25 ng i.h. after E1-E3): Extinction was similar in vehicle and butyrolactone I injected mice
freezing behavior / extinction vs. vehicle group ([1]; 25 ng i.h. after E1-E3, listed as butyrolactone 1): no significant effect on the reduction of freezing behavior
freezing behavior / extinction vs. vehicle group ([1]; 50 ng i.h. 3 h after E1): indistinguishable
freezing behavior / extinction vs. vehicle group ([1]; 50 ng i.h. 3 h after E1, listed as butyrolacone I): no significant effect on extinction
freezing behavior vs. vehicle group ([1]; 50 ng i.h. immediately after E1-E3): reduced freezing behavior on E2 and E3
freezing behavior vs. vehicle group ([1]; 50 ng i.h. immediately after E1-E3, listed as butyrolactone 1): significantly reduced freezing behavior on E2 and E3
freezing behavior vs. vehicle group ([1]; 50 ng injected 1 h after E1): significant reduction of freezing behavior on E2
reinstatement of freezing behavior by reminder shock procedure ([1]; after 50 ng i.h. following E1-E3): able to reinstate freezing behavior
freezing behavior during the extinction trial ([1]; intrahippocampal injection 15 min before extinction trial 1 or 2): did not affect freezing behavior during the extinction trial
freezing behavior vs. vehicle group ([1]; single injection i.h. 50 ng immediately after E1): significantly diminished freezing behavior on the subsequent extinction trials
freezing behavior vs. vehicle group ([1]; single injection i.h. 50 ng immediately after E1, listed as butyrolactone): significant reduction of freezing behavior on E2
hippocampal Cdk5 activity (histone H1 phosphorylation) ([5]; 12.5 ng i.h.): did not reduce hippocampal Cdk5 activity
hippocampal Cdk5 activity (histone H1 phosphorylation) ([5]; 25 ng i.h.): did not reduce hippocampal Cdk5 activity
effect on MAP kinase signaling pathway [6]: did not affect the MAP kinase signaling pathway
extinction of amygdala-dependent cued fear [7]: did not affect extinction of amygdala-dependent cued fear
PAK-1T212 levels in the cytosolic fraction vs. vehicle [3, 11]: significantly reduced
PAK-1T212 levels in the membrane fraction vs. vehicle [3, 11]: reduced
distribution of total PAK-1 between membrane and cytosol vs. vehicle [3, 11]: re-distribution of total PAK-1 from the membrane to the cytosol
PAK-1T212 levels in the cytosolic fraction vs. vehicle [3, 12]: decreased
PAK-1T212 levels in the membrane fraction vs. vehicle [3, 12]: decreased
distribution of total PAK-1 between membrane and cytosol vs. vehicle ([3]; 50 ng immediately after E1, fractions 0.5 h later, listed as butyrolactone): significant re-distribution of PAK-1 from the membrane to the cytosol
PAK-1T423 levels vs. vehicle ([3]; 50 ng immediately after E1, fractions 0.5 h later, membrane fraction (FIG. 5c)): significantly increased

CC[C@H](CO)Nc1nc(NCc2ccccc2)c2ncn(C(C)C)c2n1 [roscovitine]
freezing behavior vs. vehicle group ([1]; roscovitine i.h. 50 ng into dorsal hippocampus immediately after E1-E3): reduced freezing behavior

MVDGKPVNLGLWDTAG [Rac1 Inhibitor W56]
inhibition of Rac1 interaction with Rac1-specific GEFs [8]: selectively inhibits
